# Legend:
# HIF-1α protein = test: Western blot of hypoxia induced HIF-1α in AML 621-101; type: cell-based; details: CBD at 10 μM
# Procedure: (§1) Tsc2−/− and Tsc2+/+ cell lines were cultured and maintained in DMEM supplemented with 10% (v/v) FBS and 1% (v/v) penicillin-streptomycin in a humidified incubator (5% CO2 at 37° C.). The AML −/− cell lines were cultured and maintained in DMEM supplemented with 15% (v/v) FBS and 1% (v/v) penicillin-streptomycin in a humidified incubator (5% CO2 at 37° C.). For hypoxia, cells were put into a Binder CB150 hypoxic chamber set at 1% 02 for the indicated time points
# Cells were washed in Phosphate Buffered Saline (PBS) and then lysed directly in sample buffer (62.5 mM Tris HCL, 50 mM DTT, 2% SDS (w/v), 10% Glycerol (w/v), 0.1% Bromophenol blue (w/v) pH 7.6) and sonicated for 5×20 s cycles on full power (30 amplitude microns). Samples were boiled at 95° C. for 10 min. Lysates were resolved by SDS-PAGE and proteins were transferred to polyvinylidene difluoride membranes.
# Membranes were blocked in 5% (w/v) dry milk powder dissolved in Tris-buffered saline containing 0.1% (v/v) Tween, then probed with primary antibody and horse radish peroxidase-conjugated secondary antibody. Proteins were visualized using Enhanced Chemiluminescent solution and Hyperfilm. Antibodies towards ribosomal protein S6 (rpS6), phospho-rpS6 (Ser235/236) were purchased from Cell Signaling Technology. Anti-HIF-1α was obtained from BD transduction laboratories. Statistical Analysis […]
# Miapaca cells = test: MTT cell viability assay in Miapaca; type: cell-based; details: Homo sapiens, MIA PaCa-2, 72 h, FIG. 6B, read-out: concentration at which 50% growth inhibition was reached
# Procedure: MIAPACA is a Homo sapiens pancreas carcinoma. This is a hypotriploid human cell line.
# (§2) Cell viability was analyzed by the MTT [3-(4,5-dimethylthiazol-2-yl)-2,5-diphenyl tetrazolium bromide] assay. Pancreatic cancer cells were seeded onto each well of a 96-well plate. After 72 h of treatment with CBD, MTT solution 5 mg/ml in PBS was added to each well. The plates were then incubated at 37° C. for an additional 4 h to allow MTT to form formazan crystals by reacting with metabolically active cells. The formazan crystals were solubilized in a 1N isopropanol/HCl 10% solution at 37° C., on a shaking table for 20 min. The absorbance values of the solution in each well were measured at 570 nm using a microplate reader. Cell viability was determined by the formula: cell viability (%)=(absorbance of the treated wells−absorbance of the blank control wells)/(absorbance of the negative control wells−absorbance of the blank control wells)×100%. All MTT experiments were performed in triplicate and repeated at least three times.
# AML 621-101 cells = test: Transwell cell migration assay in AML 621-101 cells; type: cell-based
# Procedure: (i) Angiomyolipomas (AML) cells derived from a Tuberous Sclerosis Complex patient (621-101 cell-line), with a known loss of function of TSC2. […] Zeocin™ was purchased from LifeTechnologies (cat no: R25001) and was used to originally generate the stable cell line (by Prof. Lisa Henske) over two weeks of Zeocin™ selection and then for continued maintenance of the cells in tissue culture (at 100 μg/ml).
# as §1
# The stock concentration of CBD was made to 20 mM in dimethyl sulfoxide (DMSO). […]
# (§3) Transwell permeable supports with 6.5 mm diameter inserts, 8.0 μm pore size, and a polycarbonate membrane were used to perform migration assays. […] Cells were counted using a haemocytometer. […] The percentage of adherent cells was then determined by fixing the cells with methanol and acetone (1:1) for 20 minutes at 20° C. […] Crystal Violet stained cells were eluted with 1% (w/v) SDS and the absorbance was read at 550 nm on a Genova MK3 Lifescience.
# Panc-1 cells = test: MTT cell viability assay in Panc-1; type: cell-based; details: Homo sapiens, 50 μM CBD, 72 h, FIG. 6A, read-out: growth inhibition
# Procedure: PANC-1 is a human pancreatic carcinoma, epithelial-like cell line; PANC-1 cells are used as an in vitro model of non-endocrine pancreatic cancer for tumorigenicity studies.
# as §2
# The growth inhibition induced by different concentrations (0.04-50 μM) of CBD on human Panc-1 at 72 h from the beginning of the treatment was evaluated with MTT assay.
# Tsc2−/− MEFs [1] = test: Matrigel cell invasion assay in Tsc2−/− MEFs; type: cell-based, mouse
# Procedure: (§4) (ii) Tsc2−/− p53−/− and Tsc2+/+p53−/− mouse embryonic fibroblast (MEF) cell lines (now referred to as Tsc2−/− and Tsc2+/+, respectively).
# as §1
# (§5) The stock concentration of CBD was made to 20 mM in dimethyl sulfoxide (DMSO). CBD was added to culture media to final concentrations of either 5 μM or 10 μM, as indicated). The final concentration of the DMSO in the cell culture medium was at a maximum level of 0.05% (v/v).
# as §3, with “assays. Cells were grown in a 75-cm2 flask with standard medium (10% (v/v) FBS) until confluent.” for “assays.”, “Lifescience. […]” for “Lifescience.”
# Tsc2−/− MEFs [2] = test: Transwell cell migration assay in Tsc2−/− MEFs; type: cell-based, mouse; details: Tsc2+/+ as control cell; reduction not significant; FIG. 2 (A)
# Procedure: as §4, §1, §5
# as §3, with “assays. Cells were grown in a 75-cm2 flask with standard medium (10% (v/v) FBS) until confluent.” for “assays.”
structure (smiles),measurement,setting,value
"C=C(C)[C@@H]1CCC(C)=C[C@H]1c1c(O)cc(CCCCC)cc1O [CBD, Cannabidiol]",hypoxia induced expression of HIF-1α protein,HIF-1α protein,sufficient to block hypoxia induced expression of HIF-1α protein
same,IC50,Miapaca cells,15 µM
same,cell migration compared with rapamycin,AML 621-101 cells; 10 μM CBD,reduced cell migration to a significantly greater extent than rapamycin
same,cell migration,AML 621-101 cells; CBD at both 5 μM and 10 μM,significantly block
same,inhibition at 50 µM,Panc-1 cells,41%
same,cell invasion,Tsc2−/− MEFs [1]; 5 μM CBD,restoring invasion to the level of the Tsc2+/+ control cells
same,cell invasion,Tsc2−/− MEFs [1]; 10 μM CBD,more robust effect
same,cell migration,Tsc2−/− MEFs [2],reduce cell migration to control level
